Laboratory results reported in patent publication US6358948B1 (American Home Products Corporation, priority 1999, dated 2002).
pEC50: −log10 of the molar value. Several values for one entry are separate records, joined by “and”; a condition that tells them apart may be missing. Identical values can stand only once.

Test system: T47D cells
Assay: T47D cell proliferation assay (BrdU incorporation)
Type: cell-based
Conditions: half-maximal increase in BrdU incorporation in T47D cells; individual studies
Procedure: 3. T47D Cell Proliferation Assay
The objective of this assay is the determination of progestational and antiprogestational potency by using a cell proliferation assay in T47D cells. A compound's effect on DNA synthesis in T47D cells is measured.
DMEM:F12 (1:1) (GIBCO, BRL) supplemented with 10% (v/v) fetal bovine serum (not heat-inactivated), 100 U/ml penicillin, […], and 2 mM GlutaMax (GIBCO, BRL).
Minimum Essential Medium (MEM) (#51200-038GIBCO, BRL) phenol red-free supplemented with 0.5% charcoal stripped fetal bovine serum, 100 U/ml penicillin, 200 mg/ml streptomycin, and 2 mM GlutaMax (GIBCO, BRL).
Stock T47 D cells are maintained in growth medium. For BrdU incorporation assay, cells are plated in 96-well plates (Falcon, Becton Dickinson Labware) at 10,000 cells/well in growth medium. […]
At the end of BrdU labeling, the medium is removed and BrdU incorporation is measured using a cell proliferation ELISA kit (#RPN 250, Amersham Life Science) according to manufacturer's instructions. […] Then 25 μl of 1 M sulfuric acid is added to each well to stop color reaction and optical density is read in a plate reader at 450 nm within 5 min.
Square root-transformed data are used for analysis of variance and nonlinear dose response curve fitting for both agonist and antagonist modes. […] EC50 or IC50 values are calculated from the retransformed values. […]

| pEC50 | Structure (SMILES) |
| --- | --- |
| 10.72 | CC(=O)O[C@]1(C(C)=O)CC[C@H]2[C@@H]3C[C@H](C)C4=CC(=O)CC[C@]4(C)[C@H]3CC[C@@]21C [MPA, medroxyprogesterone acetate] |
| 10.77 and 10.85 and 10.72 | C[C@H](O)C(=O)[C@@]1(C)CC[C@H]2[C@@H]3CCC4=CC(=O)CCC4=C3CC[C@@]21C [Trimegestone] |
